Measurements as given in US20200297670A1, “Capsaicin Sequential Dosing Method for Treatment of Morton's Neuroma Pain” (Centrexion Therapeutics Corporation, priority 2016, published 2020).

System: pain due to an intermetatarsal neuroma
Assay: Average walking pain due to intermetatarsal neuroma on Numeric Pain Rating Scale (NPRS) after two injected doses of trans-capsaicin
Type: in vivo, human
Details: for reduction in patients' reported average walking pain due to the intermetatarsal neuroma (NPRS): 27 adult human patients
Protocol: Twenty-seven adult, human patients experiencing pain due to an intermetatarsal neuroma were treated by administering a first dose of trans-capsaicin (200 μg of trans-capsaicin) and then, after at least 11 weeks, administered a second dose of trans-capsaicin (200 μg of trans-capsaicin). Patients rated their average walking pain due to the intermetatarsal neuroma on a Numeric Pain Rating Scale (NPRS), where pain is characterized by the patient on a scale of zero to ten (with zero being “no pain”, and ten being “worst possible pain”). Patients rated their average walking pain due to the intermetatarsal neuroma on (i) just prior to receiving the injection of trans-capsaicin and (ii) four (4) weeks after receiving each injection of trans-capsaicin. Patients reported a reduction in average walking pain due to the intermetatarsal neuroma when measured at four weeks after injection of trans-capsaicin for each administration of trans-capsaicin.
trans-Capsaicin was administered to twenty-seven (27) adult, human patients experiencing pain due to an intermetatarsal neuroma according to the procedures described below. Prior to administering the first dose of trans-capsaicin in this study, patients reported an average walking pain due to the intermetatarsal neuroma of at least four on the Numeric Pain Rating Scale (NPRS). Patients received two doses of trans-capsaicin.
trans-Capsaicin was injected in the amount of 200 μg per dose by ultrasound-guided needle placement into the area of the neuroma (but not inserting the needle into the intermetatarsal neuroma itself). The dose of trans-capsaicin was injected as a 2 mL solution containing trans-capsaicin at a concentration of 100 μg/mL. […]
Pain due to the intermetatarsal neuroma was evaluated by having patients rate their average walking pain due to the intermetatarsal neuroma on a Numeric Pain Rating Scale (NPRS), where pain is characterized by the patient on a scale of zero to ten (with zero being “no pain”, and ten being “worst possible pain”). […]

For COc1cc(CNC(=O)CCCCC=CC(C)C)ccc1O [trans-capsaicin, N-[(4-hydroxy-3-methoxyphenyl)methyl]-8-methylnon-6-enamide], the “reduction in patients' reported average walking pain due to the intermetatarsal neuroma (NPRS)” value (first dose 200 μg trans-capsaicin injected into area of neuroma, four weeks after injection vs prior to first dose) was 1.6 point, the “reduction in patients' reported average walking pain due to the intermetatarsal neuroma (NPRS)” value (second dose 200 μg trans-capsaicin (83 to 196 days after first dose), four weeks after injection vs just prior to second dose) was 2.3 point and the “effect of repeat injection on pain due to an intermetatarsal neuroma” value (repeat injection, 200 μg per dose, adult human patients) was “effective in ameliorating pain”.
